Source: patent US11034718B2, “C-3 novel triterpenone with C-17 reverse amide derivatives as HIV inhibitors” (HETERO LABS LIMITED, priority 2015, dated 2021)
Counter-ions that a name gives are not always drawn. Like-named read-outs stand apart in the source and are kept apart here.

Assays:
Assay type in all cases: cell-based
[1] = system: HIV-1 pNL4-3 WT; experiment: Antiviral activity against pNL4-3/WT strain in MT4 cells (p24 estimation); conditions: Human immunodeficiency virus 1, MT4, 96 h, read-out: pNL4-3 WT IC50
Method: (§1) Example 78: Evaluation of Compounds Antiviral Activity Against pNL4-3/WT & V7A Strains in MT4 Cells
(§2) MT4 cells were Transfected with HIV-1 Plasmid (pNL4-3-WT & V7A) (Cells were incubating with required number of TCID50 of HIV-1 for 1.5 h at 37° C.). After infection, the infected cells were plated at the concentration of 3×10^4 cells per well in 96 well plate. Test compound was added to the test plate in defined format with the final concentration of DMSO is not more than 1%. Incubation was carried out in CO2 incubator for 4 days for viral infection. At the end of incubation period an aliquot from each well was taken for p24 estimation. p24 estimation was carried out using Advance biosciences kit as per the procedure detailed by supplier.

[2] = system: HIV-1 pNL4-3 V7A; experiment: Antiviral activity against pNL4-3/V7A strain in MT4 cells (p24 estimation); conditions: Human immunodeficiency virus 1, MT4, 96 h, read-out: pNL4-3 V7A IC50
Method: as §1, §2

[3] = system: HIV-1 strain 92HT599; experiment: Antiviral activity against HIV-1 strain 92HT599 in MT2 cells (p24 estimation); conditions: HIV-1 92HT599, ~96 hours
Method: Example 77: Evaluation of Compounds Antiviral Activity Against HIV-1 Strain 92HT599 in MT2 Cells
MT2 cells were infected with HIV-1 strain 92HT599 (10 TCID 50/30000 cells). The infected cells were plated at the concentration of 30,000 cells per well in 96 well plate. Test compound was added to the micro plate in defined format with the final concentration of DMSO (vehicle) is not more than 1%. Incubation was carried out in CO2 incubator for ˜96 hours for viral infection. At the end of incubation period an aliquot from each well was taken for p24 estimation. The quantitation of p24 is an index for antiviral activity of the compound. Percent inhibition was calculated with reference to control values (vehicle controls). p24 estimation was carried out using Advance biosciences kit as per the procedure detailed by supplier.

[4] = Human immunodeficiency virus 1, 0% serum binding assay, read-out: IC50 0% serum
[5] = Human immunodeficiency virus 1, 40% serum binding assay, read-out: IC50 40% serum

Structure (SMILES)	IC50 [1] [nM]	IC50 [2] [nM]	IC50 [3, 4] [nM]	IC50 [3, 5] [nM]
Cc1cccnc1C(=O)NC(C)(C)C(=O)N[C@@]12CC[C@]3(C)[C@H](CC[C@@H]4[C@@]5(C)CC[C@H](OC(=O)[C@H]6C[C@@H](C(=O)O)C6(C)C)C(C)(C)[C@@H]5CC[C@]43C)C1=C(C(C)C)C(=O)C2 [Example 29, (1R,3S)-3-((((3aR,5aR,5bR,7aR,9S,11aR,11bR,13aS)-1-isopropyl-5a,5b,8,8,11a-pentamethyl-3a-(2-methyl-2-(3-methylpicolinamido)propanamido)-2-oxo-3,3a,4,5,5a,5b,6,7,7a,8,9,10,11,11a,11b,12,13,13a-octadecahydro-2H-cyclopenta[a]chrysen-9-yl)oxy)carbonyl)-2,2-dimethylcyclobutane-1-carboxylic acid]	< 5	10 to 50		
Cc1ccc(C(=O)NC2(C(=O)N[C@@]34CC[C@]5(C)[C@H](CC[C@@H]6[C@@]7(C)CC[C@H](OC(=O)[C@H]8C[C@@H](C(=O)O)C8(C)C)C(C)(C)[C@@H]7CC[C@]65C)C3=C(C(C)C)C(=O)C4)CCCCC2)cc1 [Example 50, (1R,3S)-3-((((3aR,5aR,5bR,7aR,9S,11aR,11bR,13aS)-1-isopropyl-5a,5b,8,8,11a-pentamethyl-3a-(1-(4-methylbenzamido)cyclohexane-1-carboxamido)-2-oxo-3,3a,4,5,5a,5b,6,7,7a,8,9,10,11,11a,11b,12,13,13a-octadecahydro-2H-cyclopenta[a]chrysen 9-yl)oxy)carbonyl)-2,2-dimethylcyclobutane-1-carboxylic acid]			< 3	< 50
CC(C)C1=C2[C@H]3CC[C@@H]4[C@@]5(C)CC[C@H](OC(=O)[C@H]6C[C@@H](C(=O)O)C6(C)C)C(C)(C)[C@@H]5CC[C@@]4(C)[C@]3(C)CC[C@@]2(NC(=O)C(C)(C)NC(=O)CN(C)C)CC1=O [Example 59, (1R,3S)-3-((((3aR,5aR,5bR,7aR,9S,11aR,11bR,13aS)-3a-(2-(2-(dimethylamino)acetamido)-2-methylpropanamido)-1-isopropyl-5a,5b,8,8,11a-pentamethyl-2-oxo-3,3a,4,5,5a,5b,6,7,7a,8,9,10,11,11a,11b,12,13,13a-octadecahydro-2H-cyclopenta[a]chrysen-9-yl)oxy)carbonyl)-2,2-dimethylcyclobutane-1-carboxylic acid]			< 3	50 to 200
Cc1cccc(C(=O)NC(C)(C)C(=O)N[C@@]23CC[C@]4(C)[C@H](CC[C@@H]5[C@@]6(C)CC[C@H](OC(=O)[C@H]7C[C@@H](C(=O)O)C7(C)C)C(C)(C)[C@@H]6CC[C@]54C)C2=C(C(C)C)C(=O)C3)n1 [Example 60, (1R,3S)-3-((((3aR,5aR,5bR,7aR,9S,11aR,11bR,13aS)-1-isopropyl-5a,5b,8,8,11a-pentamethyl-3a-(2-methyl-2-(6-methylpicolinamido)propanamido)-2-oxo-3,3a,4,5,5a,5b,6,7,7a,8,9,10,11,11a,11b,12,13,13a-octadecahydro-2H-cyclopenta[a]chrysen-9-yl)oxy)carbonyl)-2,2-dimethylcyclobutane-1-carboxylic acid]			< 3	< 50
CC(C)C1=C2[C@H]3CC[C@@H]4[C@@]5(C)CC[C@H](OC(=O)[C@H]6C[C@@H](C(=O)O)C6(C)C)C(C)(C)[C@@H]5CC[C@@]4(C)[C@]3(C)CC[C@@]2(NC(=O)C(C)(C)NCc2ccccn2)CC1=O [Example 67, (1R,3S)-3-((((3aR,5aR,5bR,7aR,9S,11aR,11bR,13aS)-1-isopropyl-5a,5b,8,8,11a-pentamethyl-3a-(2-methyl-2-((pyridin-2-ylmethyl)amino)propan amido)-2-oxo-3,3a,4,5,5a,5b,6,7,7a,8,9,10,11,11a,11b,12,13,13a-octadecahydro-2H-cyclopenta[a]chrysen-9-yl)oxy)carbonyl)-2,2-dimethylcyclobutane-1-carboxylic acid]			< 3	< 50
CC(C)C1=C2[C@H]3CC[C@@H]4[C@@]5(C)CC[C@H](OC(=O)[C@H]6C[C@@H](C(=O)O)C6(C)C)C(C)(C)[C@@H]5CC[C@@]4(C)[C@]3(C)CC[C@@]2(NC(=O)C(C)(C)NCc2ccc(Cl)cc2)CC1=O [Example 68]			3.01 to 10	< 50
CC(C)C1=C2[C@H]3CC[C@@H]4[C@@]5(C)CC[C@H](OC(=O)[C@H]6C[C@@H](C(=O)O)C6(C)C)C(C)(C)[C@@H]5CC[C@@]4(C)[C@]3(C)CC[C@@]2(NC(=O)C(C)(C)NCC2(c3ccc(Cl)cc3)CC2)CC1=O [Example 69, (1R,3S)-3-((((3aR,5aR,5bR,7aR,9S,11aR,11bR,13aS)-3a-(2-(((1-(4-chlorophenyl)cyclopropyl)methyl)amino)-2-methylpropanamido)-1-isopropyl-5a,5b,8,8,11a-pentamethyl-2-oxo-3,3a,4,5,5a,5b,6,7,7a,8,9,10,11,11a,11b,12,13,13a-octadecahydro-2H-cyclopenta[a]chrysen-9-yl)oxy)carbonyl)-2,2-dimethylcyclobutane-1-carboxylic acid]			> 10	50 to 200
Cc1ccc(NC(=O)NC(C)(C)C(=O)N[C@@]23CC[C@]4(C)[C@H](CC[C@@H]5[C@@]6(C)CC[C@H](OC(=O)[C@H]7C[C@@H](C(=O)O)C7(C)C)C(C)(C)[C@@H]6CC[C@]54C)C2=C(C(C)C)C(=O)C3)cn1 [Example 71, (1R,3S)-3-((((3aR,5aR,5bR,7aR,9S,11aR,11bR,13aS)-1-isopropyl-5a,5b,8,8,11a-pentamethyl-3a-(2-methyl-2-(3-(6-methylpyridin-3-yl)ureido)propanamido)-2-oxo-3,3a,4,5,5a,5b,6,7,7a,8,9,10,11,11a,11b,12,13,13a-octadecahydro-2H-cyclopenta[a]chrysen-9-yl)oxy)carbonyl)-2,2-dimethylcyclobutane-1-carboxylic acid]			< 3	50 to 200
CC(C)C1=C2[C@H]3CC[C@@H]4[C@@]5(C)CC[C@H](OC(=O)[C@H]6C[C@@H](C(=O)O)C6(C)C)C(C)(C)[C@@H]5CC[C@@]4(C)[C@]3(C)CC[C@@]2(NC(=O)C(C)(C)NCCN(C)C)CC1=O [Example 73, (1R,3S)-3-((((3aR,5aR,5bR,7aR,9S,11aR,11bR,13aS)-3a-(2-((2-(dimethylamino)ethyl)amino)-2-methylpropanamido)-1-isopropyl-5a,5b,8,8,11a-pentamethyl-2-oxo-3,3a,4,5,5a,5b,6,7,7a,8,9,10,11,11a,11b,12,13,13a-octadecahydro-2H-cyclopenta[a]chrysen-9-yl)oxy)carbonyl)-2,2-dimethylcyclobutane-1-carboxylic acid]			< 3	< 50
CC(C)C1=C2[C@H]3CC[C@@H]4[C@@]5(C)CC[C@H](OC(=O)[C@H]6C[C@@H](C(=O)O)C6(C)C)C(C)(C)[C@@H]5CC[C@@]4(C)[C@]3(C)CC[C@@]2(NC(=O)C(C)(C)N)CC1=O [Example 74, (1R,3S)-3-((((3aR,5aR,5bR,7aR,9S,11aR,11bR,13aS)-3a-(2-amino-2-methylpropanamido)-1-isopropyl-5a,5b,8,8,11a-pentamethyl-2-oxo-3,3a,4,5,5a,5b, 6,7,7a,8,9,10,11,11a,11b,12,13,13a-octadecahydro-2H-cyclopenta[a]chrysen-9-yl)oxy)carbonyl)-2,2-dimethylcyclobutane-1-carboxylic acid hydrochloride]			< 3	< 50
CC(C)C1=C2[C@H]3CC[C@@H]4[C@@]5(C)CC[C@H](OC(=O)[C@H]6C[C@@H](C(=O)O)C6(C)C)C(C)(C)[C@@H]5CC[C@@]4(C)[C@]3(C)CC[C@@]2(NC(=O)C(C)(C)NC(=O)OC(C)(C)C)CC1=O [Example 75]			< 3	< 50
CC(C)C1=C2[C@H]3CC[C@@H]4[C@@]5(C)CC[C@H](OC(=O)[C@H]6C[C@@H](C(=O)O)C6(C)C)C(C)(C)[C@@H]5CC[C@@]4(C)[C@]3(C)CC[C@@]2(NC(=O)C(C)(C)NC(=O)[C@@H]2CCCN2)CC1=O [Example 76, (1R,3S)-3-((((3aR,5aR,5bR,7aR,9S,11aR,11bR,13aS)-1-isopropyl-5a,5b,8,8,11a-pentamethyl-3a-(2-methyl-2-((S)-pyrrolidine-2-carboxamido)propanamido)-2-oxo-3,3a,4,5,5a,5b,6,7,7a,8,9,10,11,11a,11b,12,13,13a-octadecahydro-2H-cyclopenta[a]chrysen-9-yl)oxy)carbonyl)-2,2-dimethylcyclobutane-1-carboxylic acid hydrochloride]			< 3	50 to 200
